Laboratory results as given in patent US11058734B2, “Probiotic strains having cholesterol absorbing capacity, methods and uses thereof” (BIOSEARCH, S.A., priority 2014, dated 2021).

System: HT-29 enterocytes
Assay: Fluoresterol absorption by HT-29 enterocytes (flow cytometry)
Type: cell-based
Conditions: Homo sapiens, Ezetimibe at maximum effective concentration 300 μM
Description: HT-29 enterocytes were obtained from the CIC of the University of Granada (Spain) and cultured in DMEM medium supplemented with a 10% (v/v) of FBS, non-essential amino acids and 2 mM L-glutamine; at 37° C. and 5% (v/v) CO2. Cultures for fluoresterol absorption were grown for 14 days using 96-well plates, incubated for 3-4 h with micelles of fluoresterol and bacterial suspensions at 5·10^8 bacteria/mL, or […] Ezetimibe (MSD-SP Ltd) as positive control. Before fluorocytometric assays, HT-29 cultures were disagreggated by trypsin treatment, the medium and free micelles of fluoresterol removed by centrifugation and enterocytes suspended in PBS buffer.
Micelles of fluoresterol, containing 10 mM sodium taurocholate, 6 mM phosphatidylcholine and 0.2 mM fluoresterol were prepared as described by Sparrow et al. (Sparrow et al., 1999, J Lipid Res 40:1747-57). Fluoresterol absorption by bacteria was analyzed incubating bacterial suspensions (5·10^8 bacteria/mL) with micelles (0.1 mg/mL fluoresterol) in PBS buffer at 37° C. […] Finally, bacteria associated fluorescence was determined in a Tecan Genius microplate reader (485 nm excitation, 535 nm emission filters) or in a Beckton Dickinson FACScalibur flow cytometer. […] Absorbed fluoresterol was quantified based on the data of fluorescence (λex: 488 nm; λem: 530 nm) per cell obtained from 2,000 events in each sample. […]

O=C1[C@H](CC[C@H](O)c2ccc(F)cc2)[C@@H](c2ccc(O)cc2)N1c1ccc(F)cc1 [Ezetimibe]
inhibition at 300 µM: 40%
